Test results published in patent US9018213B2, “Alicyclic[c] benzopyrone derivatives and uses thereof” (Huazhong University of Science & Technology, priority 2011, dated 2015).

Tests used:
5HT1A receptor = 5HT1A receptor (Rattus norvegicus (Rat), UniProt P19327); assay: 5HT1A receptor binding assay (3H-8-OH-DPAT)
Description: Preparation of 5HT1A Membrane
Incubation at 37° C. was conducted for 10 min, the weight of the tubes were adjusted using a balance after incubation. […] Centrifugation was conducted and repeated 3 times.
Materials for the Receptor Binding Assay

5HT2A receptor = 5HT2A receptor (Rattus norvegicus (Rat), UniProt P14842); assay: 5HT2A receptor binding assay ([3H]-Ketanserin)
D3 receptor = D3 receptor (Homo sapiens (Human), UniProt P35462); assay: D3 receptor competitive binding assay ([3H]-Spiperone, HEK-293 cells)
Description: After the cells were centrifuged at 1000 rpm for 5 min, the supernatant was discarded, and the cell pellet was collected and stored in a -20° C. fridge for reservation. It was re-suspended with Tris-Cl (pH 7.4) in the assay. […] Tris was divided into aliquots by […] Technology Inc. Procedures Competitive binding test for receptors: 20 μl of each of the test compounds and 20 μl of the radioactive ligand together with 160 μl of the receptor proteins were added into the reaction tubes, and the final concentrations of the test compound and the positive drug were all 10 μmol/L. After 50 min of incubation in 30° C. water bath, the tubes were immediately moved to ice bath to terminate the reactions. GF/C glass fiber filter papers were used for rapid sucking filtration on a Millipore cell sample collector, elution buffer (50 mM Tris-HCl, PH 7.4) was applied for 3 ml×3 times, and microwave was applied for 4-5 min for drying. The filter papers were moved into 0.5 ml centrifuge tubes, and 500 μl of lipid-soluble scintillation solution was added. The tubes were allowed to stand still for over 30 min in dark, and the intensities of radioactivity were measured by a counter.

5HT2C receptor = 5HT2C receptor (Rattus norvegicus (Rat), UniProt P08909); assay: 5HT2C receptor binding assay ([3H]-mesulergine)
mice of Kunming breed = assay: MK-801 induced high activity; type: in vivo; conditions: for ED50: Mus musculus; for ED50 / MK-801 induced high activity ED50: po, mice
Description: Healthy mice of Kunming breed (with half male and half female, (20±2) g) were provided by Qinglongshan Animal Cultivation Center, Nanjing.
Ascorbic acid was provided by Sinopharm Chemical Reagent Co. Ltd.
Tween 80, with the concentration of 10%.
Subsequently, the spontaneous activities of the mice of each group in 90 min were measured.

KM mice [1] = assay: Apomorphine induced clambering assay of mice; type: in vivo; conditions: for ED50: Mus musculus, read-out: apomorphine induced clambering ED50; for Scoring (value), apomorphine induced clambering: x ± s, n = 10
Description: Apomorphine Induced Clambering Assay of Mice
Healthy KM mice (male, with body weight of 18-22 g) were provided by Qinglongshan Animal Cultivation Center, Nanjing.
Apomorphine provided by Sigma Company was dissolved in 0.9% NaCl (containing 0.1% vitamin C) before use, and was freshly formulated before use.
Vitamin C, F20061113, was provided by Sinopharm Chemical Reagent Co. Ltd.
Sodium chloride injection, H32026305, was provided by Xuzhou No. 5 Pharmaceutical Factory Co. Ltd.
Instruments: self-made clambering cage, chronograph.
Procedures: apomorphine induced clambering assay of mice
After 5 min of adaptation, the behaviors of the mice at 10-11, 20-21, and 30-31 min after the injection of apomorphine were observed and scored. Scoring criteria: 4 paws on the floor was scored as 0; 2 forepaws on the cage was scored as 1; and 4 paws on the cage was scored as 2.

Catalepsy assay = conditions: both, Kunming (KM), mouse, po
Description: (§1) Healthy mice of Kunming breed (with half male and half female, (22±2) g) were provided by Qinglongshan Animal Cultivation Center, Nanjing.
(§2) The durations for the mice to maintain the posture with the two forepaws on the bars were recorded, and 30 s of spasticity without moving was considered as the positive response. In the case the forepaws of the mice were not put down persistently, the observation was terminated at 60 s. The numbers of animals with positive response in each of the compound dosage groups were counted.

in vivo = conditions: both sexes, mouse, in vivo; po, mice, single intragastric administration; read-out: LD50
Description: (§3) Limit Test of Sequential Assay
(§4) KM mice (half male and half female) were randomly divided into several groups (with 2-5 mice in each group), which were respectively the 2000 mg/kg groups for each compound, and the solvent group. 0.2 ml/10 g were administered intragastrically. The death of the animals in 3 days were observed. (In the case 3 or more animals survived in 3 days without notable abnormity in their life states, the observation was continued until the assay was completed in 7 days. In the case 3 or more animals died in 3 days, the median lethal dose method was used to determine the LD50).
(§5) Pre-Assay for the Median Lethal Dose Method
(§6) 0.2 ml/10 g were administered intragastrically, and the death of the animals in 1-3 days were observed.

D2 receptor = D2 receptor (Rattus norvegicus (Rat), UniProt P61169); assay: D2 receptor inhibition binding assay (3H-Spiperone)
Description: Rats were sacrificed by cervical dislocation on ice. Cerebral cortex was rapidly taken, and 2 cerebral cortexes were combined into a centrifuge tube, to which 3 ml of buffer (0.05 M Tris-HCl buffer, containing NaCl 120 mM, KCl 5 mM, MgCl2 1 mM, CaCl2 1 mM) was added, homogenization was conducted for 3-4 s at level 4 for four times, and then 5 ml of buffer was then added. The weight of the homogenized tubes were adjusted using a balance, and centrifugation was conducted at 12000 r, 4° C. for 20 min. The supernatant was discarded, and 3 ml of B solution was added. Vortex mixer was used for blending, and then 5 ml of B solution was added. Centrifugation was conducted and repeated 3 times. After the centrifugations, the supernatant was discarded, and the pellets were stored at −80° C. for future use.
Beckman LS-6500 Multi-function Liquid Scintillation Counter was used.
(1) The prepared membrane was first applied with appropriate amount of homogenized liquid, and homogenizer was used for evenly dispersing. 15 tubes were mixed into a 100 ml container, and appropriate amount of homogenized liquid was added to give 50 ml of membrane suspension, which was reserved for future use.
(2) 100 μL of membrane preparation and 100 μL of buffer were added into each reaction tube.
(3) 100 μL of homogenized liquid was added into the total binding tube (TB), 100 μL of Butaclamol (final concentration 10^−5 M) was added into the non-specific binding tube (NB), and 100 μL of the test compound (final concentration 10^−5 M) was added into the specific binding tube (SB) for each compound.
(5) Each of the reaction tubes was incubated at 37° C. for 20 min. After the reaction was completed, the bound ligands were rapidly filtered under reduced pressure, and the ice-chilled assay buffer was used for adequate washing. The filter was taken out and put into a 3 ml scintillation vial, and 2 ml of toluene scintillation solution was added and blended.
(6) The scintillation vials were put into Liquid Scintillation Counter for counting. Inhibitory rate (I %)=(Total binding tube cpm−compound cpm)/(Total binding tube cpm−non-specific binding tube cpm)×100%
Each assay for the compounds was conducted in duplicate.

KM mice [2] = assay: Catalepsy assay; conditions: mouse, in vivo
Description: as §1, §2

KM mice [3] = assay: in vivo; conditions: po, mice, single intragastric administration
Description: as §3, §4, §5, §6

5HT2C receptor, sequence (P08909 33-460): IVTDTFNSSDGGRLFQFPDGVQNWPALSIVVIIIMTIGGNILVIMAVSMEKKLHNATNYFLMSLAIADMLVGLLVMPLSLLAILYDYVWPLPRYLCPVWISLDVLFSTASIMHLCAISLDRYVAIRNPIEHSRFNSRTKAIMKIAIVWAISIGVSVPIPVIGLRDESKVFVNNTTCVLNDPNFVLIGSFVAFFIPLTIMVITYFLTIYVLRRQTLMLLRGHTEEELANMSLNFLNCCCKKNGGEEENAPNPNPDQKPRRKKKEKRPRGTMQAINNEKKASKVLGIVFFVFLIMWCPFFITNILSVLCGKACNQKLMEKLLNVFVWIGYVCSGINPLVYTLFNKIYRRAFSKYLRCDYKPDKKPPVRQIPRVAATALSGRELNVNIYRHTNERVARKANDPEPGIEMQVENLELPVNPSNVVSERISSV
D2 receptor, sequence (P61169 whole entry): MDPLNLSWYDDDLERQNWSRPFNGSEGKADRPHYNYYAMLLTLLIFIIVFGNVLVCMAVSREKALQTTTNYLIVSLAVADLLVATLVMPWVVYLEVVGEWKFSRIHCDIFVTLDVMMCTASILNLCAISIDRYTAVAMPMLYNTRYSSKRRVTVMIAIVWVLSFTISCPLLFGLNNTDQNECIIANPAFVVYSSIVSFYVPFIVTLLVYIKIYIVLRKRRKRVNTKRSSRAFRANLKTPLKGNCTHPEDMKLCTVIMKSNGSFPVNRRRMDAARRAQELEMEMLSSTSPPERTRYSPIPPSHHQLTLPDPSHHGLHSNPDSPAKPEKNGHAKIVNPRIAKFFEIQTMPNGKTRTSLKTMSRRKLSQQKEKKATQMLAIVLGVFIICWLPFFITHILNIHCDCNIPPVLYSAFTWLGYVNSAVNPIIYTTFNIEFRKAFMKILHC
D3 receptor, sequence (P35462 whole entry): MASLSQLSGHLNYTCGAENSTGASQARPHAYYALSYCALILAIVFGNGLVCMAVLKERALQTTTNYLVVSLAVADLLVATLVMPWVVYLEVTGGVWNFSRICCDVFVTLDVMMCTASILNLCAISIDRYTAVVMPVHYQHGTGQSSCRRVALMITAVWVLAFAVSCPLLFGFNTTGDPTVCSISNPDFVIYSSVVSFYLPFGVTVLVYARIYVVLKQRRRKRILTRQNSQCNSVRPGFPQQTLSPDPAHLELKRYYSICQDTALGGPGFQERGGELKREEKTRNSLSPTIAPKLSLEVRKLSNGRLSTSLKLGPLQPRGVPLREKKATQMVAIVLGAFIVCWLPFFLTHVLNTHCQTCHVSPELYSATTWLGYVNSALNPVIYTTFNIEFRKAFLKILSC
5HT2A receptor, sequence (P14842 whole entry): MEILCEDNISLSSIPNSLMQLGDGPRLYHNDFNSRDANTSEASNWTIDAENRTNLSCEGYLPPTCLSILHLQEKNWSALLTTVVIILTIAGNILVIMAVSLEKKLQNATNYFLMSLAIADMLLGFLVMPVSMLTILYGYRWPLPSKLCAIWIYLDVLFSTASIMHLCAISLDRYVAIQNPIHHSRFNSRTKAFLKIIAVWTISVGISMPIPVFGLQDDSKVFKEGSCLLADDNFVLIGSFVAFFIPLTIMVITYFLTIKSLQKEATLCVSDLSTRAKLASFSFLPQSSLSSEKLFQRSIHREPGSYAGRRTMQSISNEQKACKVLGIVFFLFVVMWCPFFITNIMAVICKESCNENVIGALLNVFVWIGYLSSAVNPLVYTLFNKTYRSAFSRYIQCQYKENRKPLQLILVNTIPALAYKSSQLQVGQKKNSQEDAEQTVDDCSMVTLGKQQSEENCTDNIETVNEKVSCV
5HT1A receptor, sequence (P19327 whole entry): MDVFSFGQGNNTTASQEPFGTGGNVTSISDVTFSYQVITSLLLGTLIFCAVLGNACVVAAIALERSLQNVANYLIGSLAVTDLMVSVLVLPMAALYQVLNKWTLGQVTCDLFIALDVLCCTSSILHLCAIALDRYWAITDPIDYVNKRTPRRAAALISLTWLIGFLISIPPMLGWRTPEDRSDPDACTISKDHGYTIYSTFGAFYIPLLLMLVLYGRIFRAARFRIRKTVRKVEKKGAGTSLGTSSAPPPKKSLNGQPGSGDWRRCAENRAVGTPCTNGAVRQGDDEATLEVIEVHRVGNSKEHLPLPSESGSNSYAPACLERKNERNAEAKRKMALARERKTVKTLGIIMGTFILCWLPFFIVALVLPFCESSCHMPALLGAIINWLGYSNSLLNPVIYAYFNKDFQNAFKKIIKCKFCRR

Row | SMILES | IC50 (5HT1A receptor) | IC50 (5HT2A receptor) | IC50 (D3 receptor) | IC50 (5HT2C receptor) | ED50 (mice of Kunming breed) | ED50 (KM mice [1]; po, mice) | Scoring (value), apomorphine induced clambering (KM mice [1]; dosage 0.1 mg/kg) | Scoring (value), apomorphine induced clambering (KM mice [1]; dosage 0.3 mg/kg) | Scoring (value), apomorphine induced clambering (KM mice [1]; dosage 1 mg/kg) | Scoring (value), apomorphine induced clambering (KM mice [1]; dosage 3 mg/kg) | ED50 (Catalepsy assay; in vivo) | LD50 (in vivo) | IC50 (D2 receptor) | Scoring (value), apomorphine induced clambering (KM mice [1]; dosage 10 mg/kg) | further results
1 | O=c1oc2cc(OCCCN3CCC(c4noc5cc(F)ccc45)CC3)ccc2c2c1CCC2 [Compound 5, 7-{3-[4-(3-(6-fluoro-benzisoxazole)-1-piperidyl)-n-propoxy]}-2,3-dihydro-1H-cyclopenteno[c]benzopyran-4-one] | 0.03 nM | 0.56 nM | 8.9 nM | 1160 nM | 0.35 mg/kg | 0.68 mg/kg | 4.60 ± 2.07 | 3.00 ± 1.94 | 0.90 ± 1.20 | 0.20 ± 0.63 | 168 mg/kg | > 2000 mg/kg | 5.6 nM | – | –
2 | COc1ccccc1N1CCN(CCCCOc2ccc3c4c(c(=O)oc3c2)CCC4)CC1 [Compound 7, 7-{4-[4-(2-methoxyphenyl)piperazin-1-yl]-butoxy}-2,3-dihydro-1H-cyclopenteno[c]benzopyran-4-one] | 0.08 nM | 0.78 nM | 7.4 nM | 1300 nM | 2.05 mg/kg | 0.13 mg/kg | – | – | – | 3.50 ± 1.96 | 261 mg/kg | > 2000 mg/kg | 2.1 nM | 2.60 ± 1.58 | affinity for 5-HT1A receptor (in words) (5HT1A receptor; in vitro assay): relatively stronger affinities; affinity for 5-HT2A receptor (in words) (5HT2A receptor; in vitro assay): relatively stronger affinities; affinity for D3 receptor (in words) (D3 receptor; in vitro assay): relatively stronger affinities; affinity for 5HT2C (in words) (5HT2C receptor; in vitro assay): lower affinity; effect on MK-801 induced high activity (in words) (mice of Kunming breed; compared to the model group): significantly improve; effect on apomorphine induced clambering symptoms (in words) (KM mice [1]; compared to the model group): effectively improve; Scoring (value), apomorphine induced clambering (KM mice [1]; dosage 30 mg/kg): 1.80 ± 1.40; Scoring (value), apomorphine induced clambering (KM mice [1]; dosage 100 mg/kg): 0.00 ± 0.00; EPS at effective dosage (in words) (KM mice [2]): did not cause EPS at effective dosage; affinity for D2 receptor (in words) (D2 receptor; in vitro assay): relatively stronger affinities
3 | O=c1oc2c(Cl)c(OCCCCN3CCN(c4nsc5ccccc45)CC3)ccc2c2c1CCC2 [Compound 14, 7-{4-[4-(3-(1,2-benzisothiazole)-1-piperazinyl)-n-butoxy]}-6-chloro-2,3-dihydro-1H-cyclopenteno[c]benzopyran-4-one] | 0.86 nM | 0.82 nM | 15.1 nM | 1490 nM | 0.82 mg/kg | 0.25 mg/kg | 5.30 ± 1.25 | 2.10 ± 1.85 | 1.25 ± 1.75 | 0.25 ± 0.71 | 189 mg/kg | > 2000 mg/kg | 10.1 nM | 0.80 ± 1.40 | –
4 | O=c1oc2c(Cl)c(OCCCCN3CCC(c4noc5cc(F)ccc45)CC3)ccc2c2c1CCC2 [Compound 15, 7-{4-[4-(3-(6-fluoro-benzisoxazole)-1-piperidyl)-butoxy]}-6-chloro-2,3-dihydro-1H-cyclopenteno[c]benzopyran-4-one] | 0.73 nM | 0.29 nM | 8.6 nM | 1890 nM | 1.25 mg/kg | 0.56 mg/kg | 4.75 ± 1.58 | 3.38 ± 0.92 | 3.00 ± 1.60 | 0.50 ± 0.76 | 98.9 mg/kg | > 2000 mg/kg | 8.1 nM | – | –
5 | COc1ccccc1N1CCN(CCCCOc2ccc3c4c(c(=O)oc3c2)CCCC4)CC1 [Compound 19, 3-{4-[4-(2-methoxyphenyl)piperazin-1-yl]-butoxy}-7,8,9,10-tetrahydrobenzo[c]benzopyran-6-one] | 4.2 nM | 1.8 nM | 13.2 nM | 1120 nM | 2.35 mg/kg | 0.15 mg/kg | – | 4.90 ± 1.10 | 1.50 ± 1.20 | 0.40 ± 0.97 | 156 mg/kg | > 2000 mg/kg | 3.6 nM | – | Scoring (value), apomorphine induced clambering (KM mice [1]; dosage 0.52 mg/kg): 0.75 ± 1.04
6 | CN1CCN(C2=Nc3cc(Cl)ccc3Nc3ccccc32)CC1 [clozapine] | – | – | – | – | – | – | – | – | – | – | – | 150 mg/kg | – | 5.50 ± 0.76 | MK-801 induced high activity ED50 (mice of Kunming breed): 2.28 mg/kg; Scoring (value), apomorphine induced clambering (KM mice [1]; dosage 17.4 mg/kg): 4.60 ± 2.07; Scoring (value), apomorphine induced clambering (KM mice [1]; dosage 23 mg/kg): 3.70 ± 2.21; Scoring (value), apomorphine induced clambering (KM mice [1]; dosage 30 mg/kg): 0.60 ± 1.07; apomorphine induced clambering ED50 (KM mice [1]; po, mice): 17.92 mg/kg; ED50 (Catalepsy assay): > 50 mg/kg; LD50 (KM mice [3]): 150 mg/kg
7 | O=C(CCCN1CCC(O)(c2ccc(Cl)cc2)CC1)c1ccc(F)cc1 [haloperidol] | – | – | – | – | – | 0.1 mg/kg | 4.50 ± 1.78 | 0.70 ± 0.82 | 0.60 ± 1.58 | – | – | 20 mg/kg | – | – | MK-801 induced high activity ED50 (mice of Kunming breed): 7.42 mg/kg; Scoring (value), apomorphine induced clambering (KM mice [1]; dosage 0.13 mg/kg): 1.50 ± 1.27; Scoring (value), apomorphine induced clambering (KM mice [1]; dosage 0.174 mg/kg): 2.20 ± 1.69; Scoring (value), apomorphine induced clambering (KM mice [1]; dosage 0.23 mg/kg): 0.80 ± 0.79; ED50 (Catalepsy assay): 0.44 mg/kg; LD50 (KM mice [3]): 20 mg/kg
